According to patent US20090253755A1, “N-[(PYRIDIN-2-YL) METHOXY] BENZAMIDE DERIVATIVES AND RELATED COMPOUNDS AS FUNGICIDES” (Bayer Cropscience SA, priority 2006, published 2009):

Test system: Alternaria alternata
Test: Cell test on Alternaria alternata
Type: cell-based
Details: under similar conditions (cell test, 2 ppm)
Procedure: Cell Test on Alternaria alternata
The growth of Alternaria alternata is performed on PDA medium at 20° C. under black light during 14 days. The PDA medium is prepared by mixing 39 grams of PDA (Merck) in 1 liter of demineralized water.
The medium is sterilized by autoclave 15 minutes at 121° C. After 14 days of growth, the spores of Alternaria alternata are recovered in sterilized water and the concentration of spores adjusted to 10^6 spores per ml.
The compounds is solubilized in DMSO and added to sterile liquid glucose/mycopeptone medium (14.6 g/l of D-glucose, 7.1 g/l of mycological peptone (Oxoid) and 1.4 g/l of yeast extract (Merck)) at a concentration of 2 ppm.
The medium is inoculated with the spore suspension at a concentration of 10^5 spores per ml.
The efficacy of the compounds is assessed by OD measurement at 620 nm after 5 days at 20° C. in comparison with a control.

Structure (SMILES) | activity
O=C(NOCc1ncc(C(F)(F)F)cc1Cl)c1c(F)cccc1F [Compound 502, N-{[3-chloro-5-(trifluoromethyl)pyridin-2-yl]methoxy}-2,6-difluorobenzamide] | did not show any activity
O=C(NOCc1ncc(C(F)(F)F)cc1Cl)c1c(Cl)cccc1Cl [Compound 501, 2,6-dichloro-N-{[3-chloro-5-(trifluoromethyl)pyridin-2-yl]methoxy}benzamide] | did not show any activity
